Consider one molecule from US11318113B2, “Compounds for the treatment of diseases linked to mitochondrial reactive oxygen species (ROS) production” (OP2 DRUGS, priority 2015, dated 2022).

≈ marks a conversion by molar mass, not a printed value.

The conditions of data set [1]: stated as known; cited from earlier work.
Data set [2] relates to other mitochondrial sites of ROS production (site IIIQO, site IF). The data set is described as follows: Mitochondrial ROS/H2O2 production (Amplex Red/HRP) after rotenone, antimycin A, myxothiazol. In kind it is biochemical, rat. The settings on record: AOL 5 to 80 μM. On the procedure:
(§1) Rates of ROS/H2O2 production from heart mitochondria were assessed through the oxidation of the colorless, non-fluorescent indicator Amplex Red in the presence of exogenous horseradish peroxidase (HRP, EC 1.11.1.7, Sigma). H2O2 reacts with Amplex Red in a 1:1 stoichiometry, yielding the fluorescent compound resorufin (excitation: 560 nm; emission: 585 nm) which is stable once formed. Fluorescence was measured continuously with a spectro-fluorometer equipped with temperature control and stirring (SAFAS Xenius, Monaco). Isolated mitochondria (0.1 mg/mL) were incubated in the same experimental buffer than previously, supplemented with 15 μM Amplex Red and 10 μg/mL HRP. Glutamate (5 mM)/malate (2.5 mM) together with succinate (5 mM) were used as complex I and complex II substrates, respectively. Experiments were conducted under non-phosphorylating conditions in the presence of 15 μM atractyloside, i.e. under state IV conditions where mitochondrial membrane […]. […]
(§2) FIG. 3 illustrates the effect of the presence of increasing concentrations of AOL (from 5 to 80 μM) on ROS/H2O2 production measured under the different conditions defined in FIG. 2. […]

For data set [3], the system named is site IQ of complex I of the mitochondrial respiratory chain. The data set is described as follows: Mitochondrial ROS/H2O2 production (Amplex Red/HRP), no complex inhibitor, ATR only. In kind it is biochemical, rat. The settings on record: glutamate+malate+succinate, ATR (state 4); AOL 5 to 80 μM. The method, then: as §1, §2
A short description of data set [4]: Solubility limit in Kolliphor. In kind it is physicochemical.
Data set [5] deals with diet-induced obese (DIO) mice. The data set is described as follows: Chronic ip treatment of diet-induced obese mice on high-fat diet. In kind it is in vivo, mouse. The conditions noted are these: for AUC of blood glucose during insulin tolerance test (ITT): vehicle 12812.50±750.35. The method, then: The aim of the study was to determine whether the compound AOL, administered daily at the doses of 5 mg/kg and 10 mg/kg for up to five weeks by intraperitoneal (ip) daily administration in diet-induced obese (DIO) mice fed with a high-fat diet (HFD), modifies food intake, body weight, adiposity and glucose metabolism.
Mice were fed ad libitum with a HFD (60% of calories from fat, mostly lard) for twelve weeks before the pharmacological study begun. Animals received AOL or its vehicle by intraperitoneal (ip) administration and were maintained on HFD for the length of the study. Food intake and body weight were measured daily and recorded for up to three consecutive weeks.
Thirty 7-weeks-old male C57/B16J mice arrived to the laboratory on 25 Feb. 2016 and underwent a first in vivo body composition analysis (Echo MRI 900, EchoMRI Systems) after 1 week of adaptation to the experimental housing room. After this first MRI analysis, animals were fed a high-fat diet (HFD) ad libitum for a period of twelve weeks. Thereafter, they underwent a second MRI analysis and were distributed into 3 experimental groups of equivalent body weight and body composition.
Once the pharmacological treatment started (day 1), food intake (FI) and body weight (BW) were measured daily before the dark phase in animals housed in their home cage. Spillage of food was checked daily. The food consumed was calculated by subtracting the food left in the hoppers from the initial pre-weighted amount. FI and BW were measured for three consecutive weeks. Afterwards animals underwent a third MRI analysis in order to observe potential effects of the treatment onto the body composition (changes in fat and lean mass), followed by a glucose tolerance test (GTT) and an insulin tolerance test (ITT). Mice received daily ip administration of AOL or its vehicle for a total length of five weeks, until they were sacrificed.
A nuclear echo magnetic resonance imaging whole-body composition analyzer (Echo MRI 900; EchoMedical Systems) was used to repeatedly assess body fat and lean mass in conscious mice.
Animals were injected ip with 1.5 g/kg of D-Glucose (Sigma-Aldrich) for the GTT or with 0.5 U/kg of insulin (Humulin, Lilly, France) for the ITT. For the GTT and the ITT, animals were fasted overnight. The tests were conducted the following morning. Blood samples were taken from the tail vein at different time points (0, 15, 30, 60, 90 and 120 minutes after the ip administration of glucose or insulin) and glucose concentration was measured using glucose sticks (OneTouch Vita, Lifescan France, Issy les Moulineaux, France).
At sacrifice, blood samples were collected, blood glucose was rapidly assessed using glucose sticks and blood samples were then centrifuged at 3000 rpm for 15 minutes. The obtained plasma was stored at −80° C. for subsequent measurement of insulin, which was carried out by performing an ELISA (kit from Mercodia, Uppsala, Sweden), according to the manufacturer's instructions.

Take `COc1ccc(-c2cc(=S)ss2)cc1` [AOL, 5-(4-methoxyphenyl)-3H-1,2-dithiole-3-thione]: the bioavailability entry in data set [1] was “very short”. In addition, in data set [2], the “ROS/H2O2 production under the other conditions” value was “no statistical differences were observed”. Moreover, the “decrease of ROS/H2O2 production measured in the absence of inhibitor” value in data set [3] is recorded as “approximately 80%”. This molecule registered a solubility limit in data set [4] of 2800 µM (≈ 673 µg/mL). For the same molecule, the blood glucose levels entry in data set [5] (2-hour fasted mice, after five weeks of treatment) is reported as “tended to decrease”. In data set [5] (5 and 10 mg/kg ip daily), the “body weight and % change of body weight” value was “did not have a significant effect”. Also, the “AUC of blood glucose during insulin tolerance test (ITT)” value in data set [5] (AOL 5 mg/kg) worked out at 15006.56±1139.69; in data set [5] (AOL 10 mg/kg, p=0.0107 vs vehicle) it was 18168.33±1562.90. Also, in data set [5] (AOL 10 mg/kg), the “action of insulin on circulating glucose levels during an ITT” value is “significantly blunted”. In data set [5] (after three weeks, 5 and 10 mg/kg ip daily), the lean mass result was “did not have any effect”. Besides, in data set [5] (after three weeks, 5 and 10 mg/kg ip daily, p=0.13), the fat mass entry is listed as “tended to reduce”. In addition, the “body weight and food intake” value in data set [5] (chronic daily administration, data not shown) is recorded as “tended to decrease”.
